Numbers after ± are expanded uncertainties.
Experiments:
[1] = for speed of sound / viscosity / mass density: 101 kPa, Liquid; for speed of sound: Frequency=2 MHz, Linear variable-path acoustic interferometer; for viscosity: Oscillating disk viscometry; for mass density: Vibrating tube method; for Normal melting temperature: Crystal, visual observation
[2] = xn = mol fraction of the nth substance listed; conditions: 101 kPa, Liquid, x2 = 0; for speed of sound: Frequency=2 MHz, Linear variable-path acoustic interferometer; for viscosity: Oscillating disk viscometry; for mass density: Vibrating tube method

speed of sound ([1]; 298.15 K) [m/s] | viscosity ([1]; 298.15 K) [mPa·s] | mass density ([1]; 298.15 K) [kg/m3] | speed of sound ([1]; 303.15 K) [m/s] | viscosity ([1]; 303.15 K) [mPa·s] | mass density ([1]; 303.15 K) [kg/m3] | speed of sound ([1]; 308.15 K) [m/s] | viscosity ([1]; 308.15 K) [mPa·s] | mass density ([1]; 308.15 K) [kg/m3] | speed of sound ([1]; 313.15 K) [m/s] | viscosity ([1]; 313.15 K) [mPa·s] | mass density ([1]; 313.15 K) [kg/m3] | speed of sound ([2]; 298.15 K) [m/s] | viscosity ([2]; 298.15 K) [mPa·s] | mass density ([2]; 298.15 K) [kg/m3] | speed of sound ([2]; 303.15 K) [m/s] | viscosity ([2]; 303.15 K) [mPa·s] | mass density ([2]; 303.15 K) [kg/m3] | speed of sound ([2]; 308.15 K) [m/s] | viscosity ([2]; 308.15 K) [mPa·s] | further results | SMILES
1544 ± 3 | 2.76 ± 0.18 | 1053.85 ± 1 | 1514 ± 3 | 2.37 ± 0.16 | 1049.87 ± 1 | 1508 ± 3 | 2.06 ± 0.14 | 1045.81 ± 1 | 1490 ± 3 | 1.83 ± 0.12 | 1041.7 ± 1 | – | – | – | – | – | – | – | – | – | CC(=O)[O-].C[NH+](C)C [trimethylammonium acetate]
– | – | – | – | – | – | – | – | – | – | – | – | 1496 ± 3 | 1.99 ± 0.13 | 1095.37 ± 1 | 1472 ± 3 | 1.8 ± 0.11 | 1092.41 ± 1 | 1460 ± 3 | 1.65 ± 0.1 | mass density ([2]; 308.15 K): 1086.06 ± 1 kg/m3; speed of sound ([2]; 313.15 K): 1442 ± 3 m/s; viscosity ([2]; 313.15 K): 1.54 ± 0.1 mPa·s; mass density ([2]; 313.15 K): 1081.43 ± 1 kg/m3 | C[S+](C)[O-] [dimethyl sulfoxide] + C[NH+](C)C.O=S(=O)([O-])O
1672 ± 3 | 7.64 ± 0.52 | 1353.61 ± 1.1 | 1660 ± 3 | 6.46 ± 0.44 | 1350.62 ± 1.1 | 1661 ± 3 | 5.61 ± 0.37 | 1347.59 ± 1.1 | 1664 ± 3 | 5.07 ± 0.32 | 1344.52 ± 1.1 | – | – | – | – | – | – | – | – | Normal melting temperature [1]: 116.00 ± 1 °C | C[NH+](C)C.O=P([O-])(O)O [trimethylammonium dihydrogen phosphate]
1564 ± 3 | 5.1 ± 0.33 | 1467.58 ± 1.2 | 1560 ± 3 | 4.48 ± 0.29 | 1463.57 ± 1.2 | 1556 ± 3 | 3.94 ± 0.27 | 1463.5 ± 1.2 | 1552 ± 3 | 3.16 ± 0.25 | 1455.63 ± 1.2 | – | – | – | – | – | – | – | – | Normal melting temperature [1]: 129.00 ± 1 °C | C[NH+](C)C.O=S(=O)([O-])O [trimethylammonium hydrogen sulfate]
– | – | – | – | – | – | – | – | – | – | – | – | 1496 ± 3 | 1.99 ± 0.13 | 1095.37 ± 1 | 1472 ± 3 | 1.8 ± 0.11 | 1092.41 ± 1 | 1460 ± 3 | 1.65 ± 0.1 | mass density ([2]; 308.15 K): 1086.06 ± 1 kg/m3; speed of sound ([2]; 313.15 K): 1442 ± 3 m/s; viscosity ([2]; 313.15 K): 1.54 ± 0.1 mPa·s; mass density ([2]; 313.15 K): 1081.43 ± 1 kg/m3 | C[S+](C)[O-] [dimethyl sulfoxide] + C[NH+](C)C.O=P([O-])(O)O
– | – | – | – | – | – | – | – | – | – | – | – | 1496 ± 3 | 1.99 ± 0.13 | 1095.37 ± 1 | 1472 ± 3 | 1.8 ± 0.11 | 1092.41 ± 1 | 1460 ± 3 | 1.65 ± 0.1 | mass density ([2]; 308.15 K): 1086.06 ± 1 kg/m3; speed of sound ([2]; 313.15 K): 1442 ± 3 m/s; viscosity ([2]; 313.15 K): 1.54 ± 0.1 mPa·s; mass density ([2]; 313.15 K): 1081.43 ± 1 kg/m3 | C[S+](C)[O-] [dimethyl sulfoxide] + CC(=O)[O-].C[NH+](C)C
1496 ± 3 | 1.99 ± 0.13 | 1095.37 ± 1 | 1472 ± 3 | 1.8 ± 0.11 | 1092.41 ± 1 | 1460 ± 3 | 1.65 ± 0.1 | 1086.06 ± 1 | 1442 ± 3 | 1.54 ± 0.1 | 1081.43 ± 1 | – | – | – | – | – | – | – | – | – | C[S+](C)[O-] [dimethyl sulfoxide]

Reference: the NIST ThermoML archive (doi:10.1016/j.jct.2012.11.014)
